In the assay the test system is rabbit fetuses. Nature of the assay: animal tests, rabbit fetuses under hypoxic conditions. The class given is in vivo.

SMILES strings stand for the structures.

Consider `Cc1cc(N)nc(C[C@@H]2CNC[C@@H]2OCCNCCc2cccc(F)c2)c1` [Compound 1], for which the “neurological damage to rabbit fetuses” value was “remarkable reduction in neurological damage”.

(Values after patent US9212161B2, “Chiral synthesis of pyrrolidine core compounds en route to neuronal nitric oxide synthase inhibitors” (Northwestern University, priority 2010, dated 2015).)
